Laboratory results reported in ChEMBL document CHEMBL1201862, “PubChem BioAssay data set” (2004).
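Protocol summary: plate cells (96-well), add compound at 5 concentrations, incubate 48 h, interpolate endpoints linearly. GI50 marks 50% less growth.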 Activity calls are given as the source filed them. Rule as the data show it: active = GI50 up to about 1.1 µM and inactive = higher.

Key:
Assay in all cases: NCI-60 cell line screen, 48 h
[1] = test system: A498
[2] = test system: KM12
[3] = test system: HCC 2998
[4] = test system: CCRF-CEM
[5] = test system: HCT-15
[6] = test system: OVCAR-4
[7] = test system: OVCAR-8
[8] = test system: EKVX
[9] = test system: UO-31
[10] = test system: Malme-3M
[11] = test system: SK-MEL-28
[12] = test system: A549
[13] = test system: SF-295
[14] = test system: SF-539
[15] = test system: ACHN
[16] = test system: TK-10
[17] = test system: SR
[18] = test system: PC-3
[19] = test system: DU-145
[20] = test system: Hs-578T

Row | Structure (SMILES) | GI50 [1] | GI50 [2] | GI50 [3] | GI50 [4] | GI50 [5] [µM] | GI50 [6] | GI50 [7] | GI50 [8] | GI50 [9] | GI50 [10] | GI50 [11] | GI50 [12] | GI50 [13] | GI50 [14] | GI50 [15] | GI50 [16] | GI50 [17] | GI50 [18] | GI50 [19] | GI50 [20]
1 | O=C(O)c1cn2c3c(cc(N4CCN(CCO)CC4)cc3c1=O)SCC2 | > 100 µM (inactive) | > 76.9 µM (inactive) | 33 µM (inactive) | 48.8 µM (inactive) | > 100 | > 60.8 µM (inactive) | 62.8 µM (inactive) | > 100 µM (inactive) | > 100 µM (inactive) | 37.2 µM (inactive) | > 100 µM (inactive) | > 100 µM (inactive) | > 100 µM (inactive) | 46.1 µM (inactive) |  |  |  |  |  | 
2 | O=C(NC(Cc1ccc(I)cc1)C(=O)O)c1ccc(Cl)cc1 (stereo not given) | > 100 µM (inactive) | > 100 µM (inactive) | > 38.8 µM (inactive) | > 81.5 µM (inactive) | > 100 | > 66.8 µM (inactive) | > 100 µM (inactive) | > 67.8 µM (inactive) | > 100 µM (inactive) | 89.7 µM (inactive) | > 100 µM (inactive) | > 100 µM (inactive) | > 100 µM (inactive) | > 77.1 µM (inactive) |  |  |  |  |  | 
3 | Cc1ccc(C)c(NC(=O)C(=O)C(C(=O)c2ccc3ccccc3c2)C2OC(=O)c3ccccc32)c1 (stereo not given) | 16.8 µM (inactive) | 14.2 µM (inactive) | 15 µM (inactive) | 10.9 µM (inactive) | 21.5 | 21.9 µM (inactive) | 7.82 µM (inactive) | 16.5 µM (inactive) | 16.5 µM (inactive) |  | 12.4 µM (inactive) | 18.2 µM (inactive) | 10.4 µM (inactive) | 4.75 µM (inactive) | 26.5 µM (inactive) | 19.2 µM (inactive) | 4.45 µM (inactive) |  |  | 
4 | OC1CCSc2ccccc21 (stereo not given) |  | > 100 µM (inactive) | > 100 µM (inactive) | > 100 µM (inactive) | > 100 | > 100 µM (inactive) | > 100 µM (inactive) | > 100 µM (inactive) | > 100 µM (inactive) | > 100 µM (inactive) | > 100 µM (inactive) | > 100 µM (inactive) |  | > 100 µM (inactive) | > 100 µM (inactive) |  | > 100 µM (inactive) |  |  | 
5 | CC[C@@]1(O)C[C@H](OC2CC(N(C)C)C(O)C(C)O2)c2c(cc3c(c2O)C(=O)c2c(O)ccc(O)c2C3=O)[C@H]1C(=O)OC (stereo not given in full) | 0.0448 µM (active) | 0.0635 µM (active) | 0.162 µM (active) | 0.0242 µM (active) | 0.0452 | 0.029 µM (active) | 0.0239 µM (active) | 0.135 µM (active) | 0.158 µM (active) | 0.0807 µM (active) | 0.148 µM (active) | 0.0365 µM (active) | 0.032 µM (active) | 0.0895 µM (active) |  |  |  |  |  | 
6 | Nc1ccn(C2OC(CO)C(O)C2(F)F)c(=O)n1 (stereo not given) | 0.186 µM (active) | 39.4 µM (inactive) | 0.728 µM (active) |  | 0.735 |  | 0.051 µM (active) | 0.973 µM (active) | 0.0658 µM (active) | 0.63 µM (active) |  | 0.055 µM (active) | 0.254 µM (active) | 0.109 µM (active) |  |  | 0.158 µM (active) | 0.885 µM (active) | 0.179 µM (active) | 
7 | O=C(Nc1ccc(Cl)cc1)C(=O)C(C(=O)c1ccccc1-c1ccccc1)C1OC(=O)c2ccccc21 (stereo not given) | 16.4 µM (inactive) | 17.3 µM (inactive) | 19.4 µM (inactive) | 18.2 µM (inactive) | 17.6 | 35.5 µM (inactive) | 15.5 µM (inactive) | 18.2 µM (inactive) | 19.4 µM (inactive) |  | 18.4 µM (inactive) | 23.6 µM (inactive) | 26.9 µM (inactive) | 22.5 µM (inactive) | 32.4 µM (inactive) | 21.4 µM (inactive) | 17.6 µM (inactive) |  |  | 
8 | CCCCCCCCCCCCCCCCNCC(O)CN (stereo not given) | 18 µM (inactive) | 1.75 µM (inactive) | 2.39 µM (inactive) | 1.96 µM (inactive) | 2.06 | 3.48 µM (inactive) | 3.53 µM (inactive) | 17.3 µM (inactive) | 7.73 µM (inactive) | 16.2 µM (inactive) | 13.1 µM (inactive) | 3.44 µM (inactive) | 2.64 µM (inactive) | 2.34 µM (inactive) |  |  |  |  |  | 
9 | COc1cc(C2S/C(=C/c3ccccc3)C(=O)N2c2cccc(NC(C)=O)c2)cc(OC)c1OC (stereo not given) | 32.5 µM (inactive) | 27.2 µM (inactive) | 29.6 µM (inactive) | 40.2 µM (inactive) | 30.5 | 24.4 µM (inactive) | 29.9 µM (inactive) | 19.3 µM (inactive) | 36.6 µM (inactive) | 23.4 µM (inactive) | 90.2 µM (inactive) | 39.2 µM (inactive) | 40.5 µM (inactive) |  | 37.2 µM (inactive) | 80.5 µM (inactive) | 37.9 µM (inactive) | 14.1 µM (inactive) |  | 15.3 µM (inactive)
10 | O=C(N/C=C1\C(=O)Oc2ccccc2C1=O)NC1CCCCC1 |  |  | > 100 µM (inactive) |  | 37.3 | 77.8 µM (inactive) | > 100 µM (inactive) | > 100 µM (inactive) | 21.3 µM (inactive) |  | 46.7 µM (inactive) | > 100 µM (inactive) |  | > 100 µM (inactive) | 30.5 µM (inactive) | > 100 µM (inactive) | > 100 µM (inactive) |  |  | 
11 | Cc1ccc(C2=C(C#N)C(N)OC3=C2COc2ccccc23)cc1 (stereo not given) | 24.1 µM (inactive) | > 100 µM (inactive) | 41.6 µM (inactive) | 22.9 µM (inactive) | > 100 | 13.5 µM (inactive) |  | 7.19 µM (inactive) | 14.3 µM (inactive) | 22.8 µM (inactive) | 31.6 µM (inactive) | 31.4 µM (inactive) |  | 39.6 µM (inactive) | 35.2 µM (inactive) | 17.2 µM (inactive) | 32.6 µM (inactive) | 18.9 µM (inactive) | 17.6 µM (inactive) | 
12 | O=C1/C(=C\c2cccc(Oc3ccccc3)c2)SC(c2ccccc2)N1Cc1ccccc1 (stereo not given) | 37.7 µM (inactive) | 24.5 µM (inactive) | 30.3 µM (inactive) | 17.1 µM (inactive) | 32.8 | 31.6 µM (inactive) | 22.4 µM (inactive) | 28 µM (inactive) | 25.7 µM (inactive) | 22.2 µM (inactive) | 29.6 µM (inactive) | 29.4 µM (inactive) | 35.3 µM (inactive) | 18.5 µM (inactive) | 52.8 µM (inactive) | 32.1 µM (inactive) | 23.9 µM (inactive) |  | 34.9 µM (inactive) | 29.1 µM (inactive)
13 | O=C(O)C1=C(CO)Oc2cc3c(cc2C1c1ccc2c(c1)OCO2)OCO3 (stereo not given) |  |  |  | > 100 µM (inactive) | > 100 | > 100 µM (inactive) | > 100 µM (inactive) | > 100 µM (inactive) | > 100 µM (inactive) | > 100 µM (inactive) | > 100 µM (inactive) | > 100 µM (inactive) | > 100 µM (inactive) | > 100 µM (inactive) | > 100 µM (inactive) | > 100 µM (inactive) |  |  |  | 
14 | Nc1cccc2nnccc12 |  | > 100 µM (inactive) |  | > 100 µM (inactive) | > 100 |  | > 100 µM (inactive) | > 100 µM (inactive) | > 100 µM (inactive) | > 100 µM (inactive) |  | > 100 µM (inactive) | > 100 µM (inactive) | > 100 µM (inactive) | > 100 µM (inactive) | > 100 µM (inactive) |  | > 100 µM (inactive) | > 100 µM (inactive) | > 100 µM (inactive)
15 | CC(C)=CC1CC(=O)C1(C)Sc1ccccc1 (stereo not given) | 56.2 µM (inactive) | > 100 µM (inactive) | > 100 µM (inactive) | 19.1 µM (inactive) | 17.3 | > 100 µM (inactive) | > 100 µM (inactive) | 54.2 µM (inactive) | 50.2 µM (inactive) | > 100 µM (inactive) | > 100 µM (inactive) | 48.2 µM (inactive) | > 100 µM (inactive) | > 100 µM (inactive) | > 100 µM (inactive) | > 100 µM (inactive) | 20 µM (inactive) |  |  | 
16 | O=S(=O)(O)c1ccc(/N=N\c2ccc(/N=N\c3ccc(/C=C/c4ccc(/N=[N+](/[O-])c5ccc(/C=C/c6ccc(/N=N/c7ccc(/N=N\c8ccc(S(=O)(=O)O)cc8)cc7)cc6S(=O)(=O)O)c(S(=O)(=O)O)c5)cc4S(=O)(=O)O)c(S(=O)(=O)O)c3)cc2)cc1 | > 100 µM (inactive) | > 100 µM (inactive) | > 100 µM (inactive) | > 100 µM (inactive) | > 100 | > 87.9 µM (inactive) | > 100 µM (inactive) | > 100 µM (inactive) | > 100 µM (inactive) | > 100 µM (inactive) | > 100 µM (inactive) | > 100 µM (inactive) | > 100 µM (inactive) | > 100 µM (inactive) |  |  |  |  |  | 
17 | COc1cc(O)c2c(c1)C(=O)c1cc3c(c(O)c1C2=O)C(OC1OC(C)C(O)C(O)C1OC)C(OC)C(C)(O)C3=O (stereo not given) | 2.04 µM (inactive) |  | 4.23 µM (inactive) |  | 2.32 | 0.476 µM (active) |  | 2.43 µM (inactive) | 2.09 µM (inactive) | 0.893 µM (active) |  | 3.71 µM (inactive) | 1.82 µM (inactive) | 1.85 µM (inactive) |  |  |  |  |  | 
18 | O=Cc1c(Cn2ccnc2)c2cc([N+](=O)[O-])ccc2n1Cc1ccccc1 | > 93.3 µM (inactive) | 73.3 µM (inactive) | > 100 µM (inactive) | 63.5 µM (inactive) | > 100 | > 100 µM (inactive) | > 81.3 µM (inactive) | > 100 µM (inactive) | > 60.1 µM (inactive) | > 100 µM (inactive) | > 100 µM (inactive) | 51.9 µM (inactive) | 36.8 µM (inactive) | > 72.6 µM (inactive) |  |  |  |  |  | 
